Where two headings read alike, the source gives them in different places.
Tests used:
[1] = target: T1, hTLR7 (human Toll-like receptor 7) (Homo sapiens, UniProt Q9NYK1); test: HEK-Blue hTLR7 reporter assay (QUANTI-Blue, OD650); assay type: cell-based; details: HEK-Blue hTLR7 cells, 24 h, read-out: Reporter assay TLR7 EC50
T1 construct: host or cells: HEK-Blue hTLR7 (HEK293-derived reporter cells)
T1 sequence (Q9NYK1 27-1049): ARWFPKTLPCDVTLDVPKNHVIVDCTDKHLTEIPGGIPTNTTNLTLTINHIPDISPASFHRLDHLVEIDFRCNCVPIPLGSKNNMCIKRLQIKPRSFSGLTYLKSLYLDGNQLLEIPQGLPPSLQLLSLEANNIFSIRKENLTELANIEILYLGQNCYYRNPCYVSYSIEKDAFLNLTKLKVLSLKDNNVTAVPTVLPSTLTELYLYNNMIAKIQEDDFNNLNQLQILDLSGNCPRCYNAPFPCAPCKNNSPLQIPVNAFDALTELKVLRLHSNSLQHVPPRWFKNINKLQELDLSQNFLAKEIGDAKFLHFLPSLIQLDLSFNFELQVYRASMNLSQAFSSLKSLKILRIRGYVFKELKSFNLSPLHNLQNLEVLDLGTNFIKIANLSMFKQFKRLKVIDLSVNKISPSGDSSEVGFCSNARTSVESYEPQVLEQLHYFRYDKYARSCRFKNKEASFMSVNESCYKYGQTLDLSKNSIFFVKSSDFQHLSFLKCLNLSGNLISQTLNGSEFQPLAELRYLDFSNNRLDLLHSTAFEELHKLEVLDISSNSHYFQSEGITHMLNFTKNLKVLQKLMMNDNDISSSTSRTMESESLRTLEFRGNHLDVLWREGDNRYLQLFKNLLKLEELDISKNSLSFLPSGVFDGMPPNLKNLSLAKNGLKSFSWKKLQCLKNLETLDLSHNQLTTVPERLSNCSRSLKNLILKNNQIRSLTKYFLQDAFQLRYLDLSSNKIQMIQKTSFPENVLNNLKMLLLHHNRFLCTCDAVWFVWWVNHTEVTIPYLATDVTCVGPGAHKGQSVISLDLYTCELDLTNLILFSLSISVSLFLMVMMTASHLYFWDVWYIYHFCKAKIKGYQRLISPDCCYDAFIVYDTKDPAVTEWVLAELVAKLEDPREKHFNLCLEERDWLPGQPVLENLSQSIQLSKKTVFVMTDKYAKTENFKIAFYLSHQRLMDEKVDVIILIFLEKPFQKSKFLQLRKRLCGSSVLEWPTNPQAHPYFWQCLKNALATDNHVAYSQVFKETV
Method: (§1) In this example, the agonistic activity of the compounds of the present application on hTLR7 (human Toll-like receptor 7) and hTLR8 (human Toll-like receptor 8) was assessed; the induction activity of the compounds on human PBMCs for TNF-α and IFN-α production was assessed in human PBMCs (human peripheral blood mononuclear cells).
(§2) All compounds were formulated in DMSO into 30 mM stock solutions and preserved at 4° C. The reference compound ([…], Cat. No. tlrl-r848-5) was purchased from InvivoGen and formulated into a 5 mg/mL stock solution in DMSO and preserved in a freezer at −20° C. HEK-Blue hTLR7 and HEK-Blue hTLR8 cell lines were purchased from InvivoGen, and human PBMCs were purchased from Shanghai Saily Biotechnology Co., Ltd. (Cat. No. XFB—HP100B).
(§3) The major instruments used in this study were multifunctional microplate reader Flexstation III (Molecular Device), Envision (Perkin Elmer), M2e (Molecular Device), and Echo555 (Labcyte). 2.1 Agonistic activity of compounds on hTLR7 (human Toll-like receptor 7) and hTLR8 (human Toll-like receptor 8)
(§4) Compound dilution: The compounds of the present application are diluted in DMSO, for example, to about 15 mM. The reference compound was added to the plates in sequence after dilution. The compounds were serially 3-fold diluted to 10 concentrations and added to 96-well plates in duplicate.
(§5) For the negative control wells, DMSO was added at 0.2 μL/well, and the reference compound was added to the positive control wells. The final concentration of DMSO was 0.2%.
(§6) Cell plating: When an 80% confluence of HEK Blue hTLR7&8 cells in the culture flask was observed under a microscope, the culture medium was discarded, 10 mL of detection medium was added, and the cells were separated by pipetting. The cells were counted on a cytometer and diluted to 500,000 cells/mL. The cells were plated at 100 μL/50,000 cells/well in the 96-well plates containing the compounds. The compounds and cells were co-incubated at 37° C. in a 5% CO2 incubator for 24 hours.
(§7) Compound activity detection: 20 μL of cell supernatant was taken from each well and added to a plate containing QUANTI-Blue™ reagent at 180 μL/well. The plate was incubated at 37° C. for 1 hour, and the absorbance at 650 nm (OD650) was measured on the multifunctional microplate reader Flexstation III.
(§8) Compound activity data analysis: The OD650 values were analyzed by GraphPad Prism software and fitted to give dose-response curves of the compounds. The EC50 values of compounds were calculated.

[2] = target: T2, hTLR8 (human Toll-like receptor 8) (Homo sapiens, UniProt Q9NR97); test: HEK-Blue hTLR8 reporter assay (QUANTI-Blue, OD650); assay type: cell-based; details: HEK-Blue hTLR8 cells, 24 h, read-out: Reporter assay TLR8 EC50
T2 construct: host or cells: HEK-Blue hTLR8 (HEK293-derived reporter cells)
T2 sequence (Q9NR97 27-1041): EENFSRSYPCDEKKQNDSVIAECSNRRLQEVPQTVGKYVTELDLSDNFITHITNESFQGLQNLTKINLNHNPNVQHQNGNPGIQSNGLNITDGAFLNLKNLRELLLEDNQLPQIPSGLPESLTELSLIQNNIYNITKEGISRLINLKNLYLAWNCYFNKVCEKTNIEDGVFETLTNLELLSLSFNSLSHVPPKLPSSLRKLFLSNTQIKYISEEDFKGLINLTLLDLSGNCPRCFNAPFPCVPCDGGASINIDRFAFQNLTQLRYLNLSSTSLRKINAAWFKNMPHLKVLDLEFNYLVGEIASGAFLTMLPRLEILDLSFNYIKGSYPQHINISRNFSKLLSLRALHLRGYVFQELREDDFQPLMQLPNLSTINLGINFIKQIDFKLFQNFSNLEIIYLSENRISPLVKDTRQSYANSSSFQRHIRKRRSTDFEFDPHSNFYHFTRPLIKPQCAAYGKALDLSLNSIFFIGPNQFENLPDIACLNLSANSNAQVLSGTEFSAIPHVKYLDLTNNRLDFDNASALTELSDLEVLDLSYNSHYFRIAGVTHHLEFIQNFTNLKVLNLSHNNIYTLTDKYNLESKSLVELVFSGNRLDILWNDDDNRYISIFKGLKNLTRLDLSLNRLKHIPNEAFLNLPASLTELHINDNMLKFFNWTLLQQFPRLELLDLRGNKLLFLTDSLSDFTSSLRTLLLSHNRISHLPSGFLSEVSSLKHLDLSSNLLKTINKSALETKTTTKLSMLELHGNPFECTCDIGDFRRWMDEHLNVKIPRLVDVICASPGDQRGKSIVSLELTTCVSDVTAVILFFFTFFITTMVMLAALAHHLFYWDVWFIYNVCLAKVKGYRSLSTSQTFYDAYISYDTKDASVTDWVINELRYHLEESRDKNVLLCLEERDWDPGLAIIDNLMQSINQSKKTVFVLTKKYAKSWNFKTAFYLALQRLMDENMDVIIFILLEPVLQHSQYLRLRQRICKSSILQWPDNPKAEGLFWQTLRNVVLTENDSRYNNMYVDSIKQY
Method: as §1, §2, §3, §4, §5, §6, §7, §8

EC50 [1] | EC50 [2] | EC50 ([1]; class symbols) | EC50 ([2]; class symbols) | SMILES
3550 nM | 2.8 nM |  |  | CCCN(OCc1ccc(N)cc1)C(=O)C1=Cc2ccc(C(=O)N3CCOCC3)cc2N=C(N)C1 [Compound 39]
 |  | > 1000 nM | 10 to 100 nM | CCCN(OCc1ccc(N)cc1)C(=O)C1=Cc2ccc(C(=O)N3CC[C@@H](O)C3)cc2N=C(N)C1 [Compound 46A]
 |  | > 1000 nM | 10 to 100 nM | CCCN(OCc1ccc(N)cc1)C(=O)C1=Cc2ccc(C(=O)N3CC[C@H](O)C3)cc2N=C(N)C1 [Compound 46B]

— patent US20250059141A1, “TLR MODULATOR AND USE THEREOF” (DUALITY BIOLOGICS (SUZHOU) CO., LTD., priority 2021, published 2025)
